Data on eight molecules can be found in patent US20070212716A1, “Nezara viridula Ecdysone Receptor” (Commonwealth Scientific & Industrial Research Org., priority 2006, published 2007).

The target in experiment [1] is NvEcR11DEF-NvUSPDEF (Nezara viridula, UniProt E5L6Y2). Nature of the experiment: Competition binding with [3H]ponasterone A, NvEcR11DEF-NvUSPDEF. Conditions: for Ki: calculated from IC50 with the Cheng-Prusoff equation; for IC50: competition with 1.3 nM bindable [3H]ponasterone A. Here is the method: (§1) Ligand binding was measured by a [^3H]ponasterone A binding assay which involved trapping of [^3H]ponasterone A-receptor protein complex on glass fibre discs and washing away unbound steroid before scintillation counting in a Packard Tri-carb scintillation analyser. All such assays, unless otherwise stated, were conducted at the same concentration of bindable [^3H]ponasterone A (2.2 nM, after correcting for the fraction of radioactive material that could never be bound no matter how much receptor was added). Binding by the receptor was expressed in terms of arbitrary units (U) that, in the linear range of the assay (i.e. up to 30 000 cpm bound per filter), were directly proportional to filter-bound cpm. Historically, IU was defined as the amount of [^3H]ponasterone A binding conveyed by a fixed volume of a specific receptor preparation. Differences in the assay over time were corrected for empirically by re-assaying the reference receptor preparation with each new batch of [^3H]ponasterone A and calculating a batch-specific adjustment that was incorporated into the numerical factor used to convert filter-bound cpm into ligand binding units. On average, 1 pmol of receptor-bound [^3H]ponasterone A corresponds to approximately 15.2 U. Specific activity values (U/μg protein) can be calculated for different preparations of purified receptor and these reflect the purity of the preparation, the proportion of receptor that is functional, and the Kd value for that particular receptor.
(§2) Increasing concentrations of, ponasterone A, muristerone A, 20-hydroxyecdysone, inokosterone, and α-ecdysone (2β, 3β, 14α,22R, 25-pentahydroxy-5β-cholest-7-ene-6-one) were used to study the ability to compete with a 1.3 nM bindable concentration of [^3H] ponasterone A for binding to the Nv recombinant heterodimers NvEcR10DEF−NvUSPDEF and NvEcR11DEF−NvUSPDEF. IC50 values were obtained from smooth curves drawn through the data points (see FIG. 6), and from these Ki values were calculated using the Cheng-Prusoff equation (Cheng et at, 1973).

The target in experiment [2] is NvEcR10DEF-NvUSPDEF (Nezara viridula, UniProt E5L6Y1). Description: Competition binding with [3H]ponasterone A, NvEcR10DEF-NvUSPDEF. As to conditions: for Ki: calculated from IC50 with the Cheng-Prusoff equation; for IC50: competition with 1.3 nM bindable [3H]ponasterone A. Here is the method:
as §1, §2

Experiment [3] has as its target ecdysone receptor recombinant ligand binding domains (DEF regions) heterodimer. Description: [3H]ponasterone A binding, Bemisia tabaci recombinant ligand binding region heterodimer. As to conditions: IMAC-purified Bemisia tabaci heterodimer; previously studied by this group. Here is the method:
as §1, with “Differences in the assay over time were corrected for empirically by re-assaying the reference receptor preparation with each new batch of [^3H]ponasterone A and calculating a batch-specific adjustment that was incorporated into the numerical factor used to convert filter-bound cpm into ligand binding units.” left out, “receptor. […]” for “receptor.”

Experiment [4] shares this target. Description: [3H]ponasterone A binding, Helicoverpa armigera recombinant ligand binding region heterodimer. As to conditions: IMAC-purified Helicoverpa armigera heterodimer; previously studied by this group. Here is the method:
as §1, with “Differences in the assay over time were corrected for empirically by re-assaying the reference receptor preparation with each new batch of [^3H]ponasterone A and calculating a batch-specific adjustment that was incorporated into the numerical factor used to convert filter-bound cpm into ligand binding units.” left out, “receptor. […]” for “receptor.”

For experiment [5] the target is unchanged. Description: [3H]ponasterone A binding, Myzus persicae recombinant ligand binding region heterodimer. Conditions: IMAC-purified Myzus persicae heterodimer; previously studied by this group. On the procedure: as §1, with “Differences in the assay over time were corrected for empirically by re-assaying the reference receptor preparation with each new batch of [^3H]ponasterone A and calculating a batch-specific adjustment that was incorporated into the numerical factor used to convert filter-bound cpm into ligand binding units.” left out, “receptor. […]” for “receptor.”

In experiment [6] the test system is NvEcR10DEF-NvUSPDEF recombinant ecdysone receptor ligand binding region heterodimer. Nature of the experiment: [3H]ponasterone A filter binding assay / equilibrium binding, NvEcR10DEF-NvUSPDEF. On the set-up: species or system Nezara viridula. Here is the method: (§3) Ponasterone A binding data used in Kd determination for the purified recombinant heterodimers NvEcR10DEF−NvUSPDEF and NvEcR11DEF−NvUSPDEF (Kd curves). Rt=concentration of active receptor. L=free [^3H] Ponasterone A. All values in tables are given in pM.
as §1, with “Historically, IU was defined as the amount of [^3H]ponasterone A binding conveyed by a fixed volume of a specific receptor preparation. Differences in the assay over time were corrected for empirically by re-assaying the reference receptor preparation with each new batch of [^3H]ponasterone A and calculating a batch-specific adjustment that was incorporated into the numerical factor used to convert filter-bound cpm into ligand binding units.” left out, “receptor. […]” for “receptor.”

For experiment [7], the system named is NvEcR11DEF-NvUSPDEF recombinant ecdysone receptor ligand binding region heterodimer. Description: [3H]ponasterone A filter binding assay / equilibrium binding, NvEcR11DEF-NvUSPDEF. On the set-up: species or system Nezara viridula. On the procedure:
as §3
as §1, with “Historically, IU was defined as the amount of [^3H]ponasterone A binding conveyed by a fixed volume of a specific receptor preparation. Differences in the assay over time were corrected for empirically by re-assaying the reference receptor preparation with each new batch of [^3H]ponasterone A and calculating a batch-specific adjustment that was incorporated into the numerical factor used to convert filter-bound cpm into ligand binding units.” left out, “receptor. […]” for “receptor.”

Experiment [8] has as its target ecdysone receptor recombinant ligand binding domains (DEF regions) heterodimer. Nature of the experiment: [3H]ponasterone A binding, Lucilia cuprina recombinant ligand binding region heterodimer. As to conditions: IMAC-purified Lucilia cuprina heterodimer; previously studied by this group. Here is the method:
as §1, with “Differences in the assay over time were corrected for empirically by re-assaying the reference receptor preparation with each new batch of [^3H]ponasterone A and calculating a batch-specific adjustment that was incorporated into the numerical factor used to convert filter-bound cpm into ligand binding units.” left out

In experiment [9] the target is T1, FLAG-tagged NvUSPDEF (DEF domains / ligand binding region of Nezara viridula ultraspiracle protein) (Nezara viridula).
T1 construct: Co-expressed with His6-EcRDEF (isoform 10 or 11) in Sf9 cells; also called FLAG USPDEF; FLAG USPDEF5.1
T1 chain: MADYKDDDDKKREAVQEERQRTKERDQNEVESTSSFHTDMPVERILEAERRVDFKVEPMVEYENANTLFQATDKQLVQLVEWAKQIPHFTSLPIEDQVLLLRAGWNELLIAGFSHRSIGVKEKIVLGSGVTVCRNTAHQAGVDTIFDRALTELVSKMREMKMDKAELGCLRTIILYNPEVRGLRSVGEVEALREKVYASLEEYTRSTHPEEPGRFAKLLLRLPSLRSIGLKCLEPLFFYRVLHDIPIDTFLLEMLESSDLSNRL
Description: IMAC co-purification of the heterodimer through the His6 tag on EcRDEF, from Sf9 cell extracts.

Turning to “2β, 3β, 14α, 20R,22R,25-hexahydroxy-5β-cholest-7-′ene-6-one [20-hydroxyecdysone]”, in experiment [1], the inhibitory constant (Ki) (as a rule, a dissociation constant, usually derived from enzyme kinetics or from competition with a known ligand) was 3800 nM and the IC50 (usually the concentration needed to halve the response being measured) is 4500 nM. Besides, in [2], the Ki is 3600 nM and the IC50 turned out to be 4000 nM.
On to `CC(CO)CC[C@@H](O)[C@](C)(O)[C@H]1CC[C@@]2(O)C3=CC(=O)[C@@H]4C[C@@H](O)[C@@H](O)C[C@]4(C)[C@H]3CC[C@]12C` (stereo partly drawn) [Inokosterone], for which, in experiment [1], the Ki was 6800 nM and the IC50 worked out at 8000 nM. In experiment [2], the Ki is 6300 nM and the 50% inhibitory concentration (IC50) worked out at 7500 nM.
For the molecule `CC(C)CC[C@@H](O)[C@](C)(O)[C@H]1CC[C@@]2(O)C3=CC(=O)[C@]4(O)C[C@@H](O)[C@@H](O)C[C@]4(C)[C@H]3[C@H](O)C[C@]12C` [Muristerone A], in experiment [1], the Ki was 100 nM and the half-maximal inhibitory concentration (IC50) was found to be 120 nM. For the same molecule, in [2], the Ki was 100 nM and the concentration for half-maximal inhibition (IC50) worked out at 120 nM.
Regarding `CC(C)CC[C@@H](O)[C@](C)(O)[C@H]1CC[C@@]2(O)C3=CC(=O)[C@@H]4C[C@@H](O)[C@@H](O)C[C@]4(C)[C@H]3CC[C@]12C` [Ponasterone A], in [1], the Ki is 200 nM and the IC50 was 280 nM. In addition, in [2], the Ki is 200 nM and the IC50 came out at 260 nM.
With `CC(C(O)CCC(C)(C)O)C1CCC2(O)C3=CC(=O)C4CC(O)C(O)CC4(C)C3CCC12C` [α-Ecdysone, 2β, 3β, 14α,22R, 25-pentahydroxy-5β-cholest-7-ene-6-one], in [1], the Ki is 45200 nM and the IC50 was determined as 53000 nM. Besides, in [2], the Ki is 46200 nM and the 50% inhibitory concentration (IC50) is 55000 nM.
With [^3H]ponasterone A, the Kd (usually the constant that tells how readily two partners part at equilibrium) in experiment [3] was 1.2 ± 0.2 nM; in experiment [4], 2.5 ± 0.1 nM; in [5] it was 0.7 ± 0.1 nM; in experiment [6] (equilibrium binding of [3H]ponasterone A to IMAC-purified NvEcR10DEF-NvUSPDEF), 6.8 ± 0.8 nM; in experiment [7] (equilibrium binding of [3H]ponasterone A to IMAC-purified NvEcR11DEF-NvUSPDEF), 7.5 ± 0.8 nM; in experiment [8], 1 ± 0.1 nM. The “Specific activity ([3H]ponasterone A binding units per μg protein)” value in [3] is 11.3 U/μg; in experiment [5], 17.3-18.8 U/μg; in experiment [6] (IMAC-purified NvEcR10DEF-NvUSPDEF, 2.2 nM bindable [3H]ponasterone A), 5.0 U/μg; in [7] (IMAC-purified NvEcR11DEF-NvUSPDEF, 2.2 nM bindable [3H]ponasterone A), 7.3 U/μg; in [8] it was 15.4-24.3 U/μg.

B1: (His)6-tagged NvEcR11DEF (DEF domains / ligand binding region of Nezara viridula ecdysone receptor protein isoform NvEcR11) (receptor)
chain: MGMRGSHHHHHHRPECVVPEYQCAVKRKEKKAQKDKDKPVSTTNGSPESIKVEEPHRVVYKTEGETLGRPVPINGVKPVSPEQEELIHRLVYFQNEYEHPSEEDLRRINTPNEDEEQSDQRFRHLTEITILTVQLIVEFAKRLPGFDKLLREDQIALLKACSSEVMMLRMARKYDATTDSILFANNQPYNRESYSLAGMGDVIEDLLRFCRHMFNMKVDNAEYALLTAIVIFSERPALIEGWKVEKIQEIYLEALKSYVDNRSRPRSPTIFAKLLSVLTELRTLGNQNSEMCFSLKLQNKKLPPFLAEIWDVNT
notes: Co-expressed with FLAG-NvUSPDEF in Sf9 cells from one baculovirus; also called His6EcRDEF11.1; EcRDEF
B1: in [9], the binding result is reported as “binds”.

B2: (His)6-tagged NvEcR10DEF (DEF domains / ligand binding region of Nezara viridula ecdysone receptor protein isoform NvEcR10) (receptor)
chain: MGMRGSHHHHHHRPECVVPEYQCAVKRKEKKAQKDKDKPVSTTNGSPESIKVEEPHRVVYKTEGETLGRPVPINGVKPVSPEQEELIHRLVYFQNEYEHPSEEDLRRIVSNTPNEDEEQSDQRFRHLTEITILTVQLIVEFAKRLPGFDKLLREDQIALLKACSSEVMMLRMARKYDATTDSILFANNQPYNRESYSLAGMGDVIEDLLRFCRHMFNMKVDNAEYALLTAIVIFSERPALIEGWKVEKIQEIYLEALKSYVDNRSRPRSPTIFAKLLSVLTELRTLGNQNSEMCFSLKLQNKKLPPFLAEIWDVNT
notes: Co-expressed with FLAG-NvUSPDEF in Sf9 cells from one baculovirus; also called His6EcRDEF10.1; EcRDEF
Regarding B2, in experiment [9], the binding result was “binds”.
